The values below are quoted from earlier work in US20050065732A1, “Matrix methods for quantitatively analyzing and assessing the properties of botanical samples” (priority 2001, published 2005).

The test system of data set [1] is human umbilical vein endothelial cells (HUVECs).

As for `CC(C)=CCC[C@](C)(O[C@@H]1O[C@H](CO)[C@@H](O)[C@H](O)[C@H]1O)[C@H]1CC[C@]2(C)[C@@H]1[C@H](O)C[C@@H]1[C@@]3(C)CC[C@H](O)C(C)(C)[C@@H]3[C@@H](O[C@@H]3O[C@H](CO)[C@@H](O)[C@H](O)[C@H]3O[C@@H]3OC[C@@H](O)[C@H](O)[C@H]3O)C[C@]12C` [NR1, notoginsenoside R1], in the data set with HUVECs, the PAI-1 antigen synthesis result is listed as “did not change”; the “TPA mRNA” value is “increased as much as twofold”; the TPA synthesis entry was “dose- and time-dependent increase”; the “expression of PAI-1-specific mRNA” value was “not significantly affected”. The “urokinase-type plasminogen activator antigen synthesis” value in the data set with HUVECs is listed as “did not change”.

`CC(C)(O)[C@@H]1CC[C@](C)([C@H]2[C@@H](O)C[C@@]3(C)[C@@H]4C[C@H](O[C@@H]5O[C@H](CO)[C@@H](O)[C@H](O)[C@H]5O)[C@H]5C(C)(C)[C@@H](O[C@@H]6OC[C@@H](O)[C@H](O)[C@H]6O)CC[C@@]56C[C@@]46CC[C@]23C)O1` [astragaloside IV]: in data set [1], the “plasminogen activator inhibitor type I (PAI-1) specific mRNA expression” value is reported as “decreased” and the “tissue-type plasminogen activator (t-PA) specific mRNA” value is “increased”.
